Reference: patent US8044069B2, “Compounds as calcium channel blockers” (Abbott Laboratories, priority 2008, dated 2011)

target: human Cav2.2 (Homo sapiens, UniProt Q00975); test: Assessment of calcium channel activity using FLIPR (Ca2+ influx in IMR32 cells); type: cell-based; details: IMR32 cells endogenously expressing human Cav2.2; 60 minute pre-incubation; 2 μM nifedipine; depolarized with 80 mM KCl, 5 mM CaCl2
Experimental: (i) In Vitro Methods—Assessment of Calcium Channel Activity Using FLIPR:
The IMR32 cells were maintained in MEM media containing 10% (v/v) FBS, 1% (v/v) antibiotic/antimitotic, 1% (v/v) sodium pyruvate and 1% (v/v) MEM NEAA. Following dissociation in 0.05% (v/v) trypsin/EDTA, cells were seeded into black 1×96-well plates (Corning Cellbind) at a density of 1-1.2×10^5 cells/well and incubated in the maintenance media above for 48 hours at 37° C. […] After dye loading and a subsequent 60 minute pre-incubation with compounds (full log dilutions from 10 μM to 0.1 nM) in the presence of 1.3 mM CaCl2 and 2 μM nifedipine to block endogenous L-type channels, the external Ca^2+ concentration was increased to 5 mM CaCl2 and the cells concomitantly depolarized with 80 mM KCl to assay channel activity. To determine the IC50 values, the percent inhibition of the compound at each concentration was determined relative to the activity in the absence of inhibitor, and data was fitted using non-linear regression sigmoidal dose response curve analysis with GraphPad Prism®.

human Cav2.2, sequence (Q00975 whole entry): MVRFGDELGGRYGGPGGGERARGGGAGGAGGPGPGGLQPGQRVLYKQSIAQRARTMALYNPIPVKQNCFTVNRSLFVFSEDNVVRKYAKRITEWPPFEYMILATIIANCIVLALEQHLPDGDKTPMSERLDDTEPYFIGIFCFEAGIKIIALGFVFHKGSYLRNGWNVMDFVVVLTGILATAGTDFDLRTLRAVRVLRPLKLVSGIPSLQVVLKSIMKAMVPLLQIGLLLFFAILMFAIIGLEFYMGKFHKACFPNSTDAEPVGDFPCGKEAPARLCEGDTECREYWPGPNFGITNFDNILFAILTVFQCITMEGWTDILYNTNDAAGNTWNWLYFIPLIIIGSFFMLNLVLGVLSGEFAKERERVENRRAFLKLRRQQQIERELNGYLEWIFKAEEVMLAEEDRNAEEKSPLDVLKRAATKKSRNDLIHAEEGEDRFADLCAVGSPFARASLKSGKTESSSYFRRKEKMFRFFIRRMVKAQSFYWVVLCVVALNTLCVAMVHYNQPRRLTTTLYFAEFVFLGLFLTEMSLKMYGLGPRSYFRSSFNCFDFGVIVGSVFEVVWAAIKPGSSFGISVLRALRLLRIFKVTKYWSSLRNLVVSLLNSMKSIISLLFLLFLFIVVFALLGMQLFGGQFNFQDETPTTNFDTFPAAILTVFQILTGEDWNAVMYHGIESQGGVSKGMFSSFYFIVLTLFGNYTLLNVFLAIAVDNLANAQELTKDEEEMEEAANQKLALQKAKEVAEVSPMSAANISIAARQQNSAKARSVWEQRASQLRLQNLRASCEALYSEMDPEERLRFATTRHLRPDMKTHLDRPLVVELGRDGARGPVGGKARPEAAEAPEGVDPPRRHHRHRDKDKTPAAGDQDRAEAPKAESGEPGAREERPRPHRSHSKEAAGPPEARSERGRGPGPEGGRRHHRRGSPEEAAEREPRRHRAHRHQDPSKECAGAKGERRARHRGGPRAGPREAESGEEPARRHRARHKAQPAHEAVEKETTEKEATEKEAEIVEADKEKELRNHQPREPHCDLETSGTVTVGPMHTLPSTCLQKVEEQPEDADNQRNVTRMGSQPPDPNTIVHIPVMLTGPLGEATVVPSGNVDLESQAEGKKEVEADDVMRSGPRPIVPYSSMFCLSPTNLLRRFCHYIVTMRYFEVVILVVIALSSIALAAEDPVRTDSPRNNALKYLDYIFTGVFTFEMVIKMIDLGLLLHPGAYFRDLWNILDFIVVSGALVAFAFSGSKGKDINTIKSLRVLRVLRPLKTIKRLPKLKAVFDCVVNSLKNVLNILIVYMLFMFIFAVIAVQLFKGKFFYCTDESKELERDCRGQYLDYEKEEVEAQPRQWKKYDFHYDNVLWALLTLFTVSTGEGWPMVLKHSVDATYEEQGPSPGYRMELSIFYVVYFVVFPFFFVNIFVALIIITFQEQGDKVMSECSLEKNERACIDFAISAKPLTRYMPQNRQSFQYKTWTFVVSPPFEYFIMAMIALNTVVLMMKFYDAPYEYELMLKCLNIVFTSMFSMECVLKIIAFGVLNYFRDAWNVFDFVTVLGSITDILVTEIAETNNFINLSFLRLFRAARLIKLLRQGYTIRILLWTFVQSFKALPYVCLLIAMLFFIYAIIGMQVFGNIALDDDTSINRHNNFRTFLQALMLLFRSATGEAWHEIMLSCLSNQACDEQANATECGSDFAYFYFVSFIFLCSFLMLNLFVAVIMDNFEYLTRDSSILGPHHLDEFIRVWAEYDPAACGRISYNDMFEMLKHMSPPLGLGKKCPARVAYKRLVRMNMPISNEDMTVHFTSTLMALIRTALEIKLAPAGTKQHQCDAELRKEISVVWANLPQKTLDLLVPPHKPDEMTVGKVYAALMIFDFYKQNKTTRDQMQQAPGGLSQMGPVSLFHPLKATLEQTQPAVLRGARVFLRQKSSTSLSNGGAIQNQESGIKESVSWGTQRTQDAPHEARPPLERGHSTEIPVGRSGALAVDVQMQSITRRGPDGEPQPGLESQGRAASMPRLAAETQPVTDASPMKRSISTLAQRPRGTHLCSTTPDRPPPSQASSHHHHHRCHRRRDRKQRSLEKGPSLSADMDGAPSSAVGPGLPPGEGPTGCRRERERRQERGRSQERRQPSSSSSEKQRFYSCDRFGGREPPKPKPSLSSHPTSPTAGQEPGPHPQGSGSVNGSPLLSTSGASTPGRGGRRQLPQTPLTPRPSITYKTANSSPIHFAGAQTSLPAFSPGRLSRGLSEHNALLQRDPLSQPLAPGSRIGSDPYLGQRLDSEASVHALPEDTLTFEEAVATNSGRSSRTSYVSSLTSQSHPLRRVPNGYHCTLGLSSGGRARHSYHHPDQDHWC
human Cav2.2, sequence (P54289 25-951 partner limits assumed): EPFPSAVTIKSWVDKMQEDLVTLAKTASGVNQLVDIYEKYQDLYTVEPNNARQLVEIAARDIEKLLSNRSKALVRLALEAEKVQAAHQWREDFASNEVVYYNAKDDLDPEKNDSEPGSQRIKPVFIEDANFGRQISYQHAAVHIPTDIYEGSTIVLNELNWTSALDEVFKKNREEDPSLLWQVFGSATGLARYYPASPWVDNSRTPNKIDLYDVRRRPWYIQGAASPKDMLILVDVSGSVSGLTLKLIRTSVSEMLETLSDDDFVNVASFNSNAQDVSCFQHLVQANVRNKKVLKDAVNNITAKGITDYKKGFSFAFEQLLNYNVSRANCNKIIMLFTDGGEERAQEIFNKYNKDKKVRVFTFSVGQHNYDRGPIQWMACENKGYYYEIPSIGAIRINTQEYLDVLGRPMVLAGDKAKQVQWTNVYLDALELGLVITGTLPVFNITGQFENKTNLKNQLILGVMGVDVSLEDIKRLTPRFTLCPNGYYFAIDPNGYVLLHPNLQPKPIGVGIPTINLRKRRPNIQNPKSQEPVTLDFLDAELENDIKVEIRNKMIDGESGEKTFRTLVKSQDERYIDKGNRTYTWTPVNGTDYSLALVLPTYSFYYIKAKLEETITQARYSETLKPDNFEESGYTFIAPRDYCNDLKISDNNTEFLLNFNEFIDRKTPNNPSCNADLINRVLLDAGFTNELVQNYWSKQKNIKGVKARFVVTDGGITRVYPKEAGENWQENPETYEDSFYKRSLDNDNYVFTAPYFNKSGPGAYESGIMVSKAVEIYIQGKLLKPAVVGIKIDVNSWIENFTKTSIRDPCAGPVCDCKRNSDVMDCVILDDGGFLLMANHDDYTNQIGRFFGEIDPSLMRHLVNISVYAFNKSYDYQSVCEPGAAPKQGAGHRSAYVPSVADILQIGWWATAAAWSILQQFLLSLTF
human Cav2.2, sequence (P54289 952-1103 partner limits assumed): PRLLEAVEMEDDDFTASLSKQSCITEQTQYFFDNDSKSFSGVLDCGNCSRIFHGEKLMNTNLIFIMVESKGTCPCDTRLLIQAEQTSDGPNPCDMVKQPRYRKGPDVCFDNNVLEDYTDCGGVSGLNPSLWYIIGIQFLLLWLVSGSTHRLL
human Cav2.2, sequence (P54284 whole entry partner): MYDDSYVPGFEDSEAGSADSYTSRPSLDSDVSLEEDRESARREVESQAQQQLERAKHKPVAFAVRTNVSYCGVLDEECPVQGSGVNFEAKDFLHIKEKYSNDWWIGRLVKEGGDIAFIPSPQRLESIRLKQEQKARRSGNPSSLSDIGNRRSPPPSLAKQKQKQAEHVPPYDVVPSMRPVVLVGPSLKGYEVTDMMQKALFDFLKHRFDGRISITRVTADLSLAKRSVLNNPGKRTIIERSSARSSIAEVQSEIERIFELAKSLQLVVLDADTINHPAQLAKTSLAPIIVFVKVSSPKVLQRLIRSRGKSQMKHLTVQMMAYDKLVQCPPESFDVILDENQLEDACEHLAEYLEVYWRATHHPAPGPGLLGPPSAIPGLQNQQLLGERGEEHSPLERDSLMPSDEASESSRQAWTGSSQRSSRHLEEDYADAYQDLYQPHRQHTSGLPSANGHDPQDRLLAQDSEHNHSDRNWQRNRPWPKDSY

| SMILES | IC50 |
| --- | --- |
| O=C(CN1CCC(c2ccccc2)(c2ccccc2)C1=O)N[C@H]1CC[C@H]2CN(Cc3cccc(C(F)(F)F)c3)C[C@H]21 (relative stereo) [Example 56, 2-(2-oxo-3,3-diphenylpyrrolidin-1-yl)-N-{(3aS*,4S*,6aR*)-2-[3-(trifluoromethyl)benzyl]octahydrocyclopenta[c]pyrrol-4-yl}acetamide] | 1100 nM |
| O=C(CN1CCC(c2ccccc2)(c2ccccc2)C1=O)N[C@@H]1CC[C@H]2CN(Cc3cccc(C(F)(F)F)c3)C[C@H]21 (relative stereo) [Example 57, 2-(2-oxo-3,3-diphenylpyrrolidin-1-yl)-N-{(3aS*,4R*,6aR*)-2-[3-(trifluoromethyl)benzyl]octahydrocyclopenta[c]pyrrol-4-yl}acetamide] | 490 nM |
| O=C(CN1CCC[C@@H](c2ccccc2)C1=O)N1Cc2ccc(F)cc2C1 (single isomer, unassigned) [Example 187] | > 30000 nM |
| O=C(CN1CCC[C@H](c2ccccc2)C1=O)N1Cc2ccc(F)cc2C1 (single isomer, unassigned) [Example 188] | > 30000 nM |
| O=C1[C@H](c2ccc(F)cc2)CCN1Cc1nc(-c2ccc(C(F)(F)F)cc2)no1 (single isomer, unassigned) [Example 236] | 2750 nM |
| O=C1[C@@H](c2ccc(F)cc2)CCN1Cc1nc(-c2ccc(C(F)(F)F)cc2)no1 (single isomer, unassigned) [Example 237] | 2810 nM |
| O=C(CN1CCC(c2ccc(F)cc2)C1=O)N1Cc2ccc(C(F)(F)F)cc2C1 (single isomer, unassigned; (-)) [Example 265, (−)-3-(4-fluorophenyl)-1-{2-oxo-2-[5-(trifluoromethyl)-1,3-dihydro-2H-isoindol-2-yl]ethyl}pyrrolidin-2-one] | 11100 nM |
| O=C(CN1CCC(c2ccccc2)(c2ccccc2)C1=O)NCc1ccc(C(F)(F)F)nc1 [Example 2, 2-(2-oxo-3,3-diphenylpyrrolidin-1-yl)-N-{[6-(trifluoromethyl)pyridin-3-yl]methyl}acetamide] | 5280 nM |
| O=C(CN1CCC(c2ccccc2)(c2ccccc2)C1=O)NCc1nccs1 [Example 3, 2-(2-oxo-3,3-diphenylpyrrolidin-1-yl)-N-(1,3-thiazol-2-ylmethyl)acetamide] | 13400 nM |
| Cn1ccc(CNC(=O)CN2CCC(c3ccccc3)(c3ccccc3)C2=O)n1 [Example 4, N-[(1-methyl-1H-pyrazol-3-yl)methyl]-2-(2-oxo-3,3-diphenylpyrrolidin-1-yl)acetamide] | 29800 nM |
| O=C(CN1CCC(c2ccccc2)(c2ccccc2)C1=O)Nc1ccc(Cl)cn1 [Example 5, N-(5-chloropyridin-2-yl)-2-(2-oxo-3,3-diphenylpyrrolidin-1-yl)acetamide] | 4510 nM |
| O=C(CN1CCC(c2ccccc2)(c2ccccc2)C1=O)NCc1ccccc1 [Example 6, N-benzyl-2-(2-oxo-3,3-diphenylpyrrolidin-1-yl)acetamide] | 5740 nM |
| O=C(CN1CCC(c2ccccc2)(c2ccccc2)C1=O)NCc1cccc(C(F)(F)F)c1 [Example 7, 2-(2-oxo-3,3-diphenylpyrrolidin-1-yl)-N-[3-(trifluoromethyl)benzyl]acetamide] | 2330 nM |
| O=C(CN1CCC(c2ccccc2)(c2ccccc2)C1=O)NCc1ccc(C(F)(F)F)cc1 [Example 8, 2-(2-oxo-3,3-diphenylpyrrolidin-1-yl)-N-[4-(trifluoromethyl)benzyl]acetamide] | 1490 nM |
| O=C(CN1CCC(c2ccccc2)(c2ccccc2)C1=O)NC(c1ccccc1)C1CC1 (centres unmarked) [Example 9, N-[cyclopropyl(phenyl)methyl]-2-(2-oxo-3,3-diphenylpyrrolidin-1-yl)acetamide] | 2100 nM |
| O=C(CN1CCC(c2ccccc2)(c2ccccc2)C1=O)NCCc1cccc(C(F)(F)F)c1 [Example 10, 2-(2-oxo-3,3-diphenylpyrrolidin-1-yl)-N-{2-[3-(trifluoromethyl)phenyl]ethyl}acetamide] | 3870 nM |
| O=C(CN1CCC(c2ccccc2)(c2ccccc2)C1=O)NC1(c2ccccc2)CCC1 [Example 11, 2-(2-oxo-3,3-diphenylpyrrolidin-1-yl)-N-(1-phenylcyclobutyl)acetamide] | 890 nM |
| O=C(CN1CCC(c2ccccc2)(c2ccccc2)C1=O)NCc1ccc(F)cc1 [Example 12, N-(4-fluorobenzyl)-2-(2-oxo-3,3-diphenylpyrrolidin-1-yl)acetamide] | 3890 nM |
| O=C(CN1CCC(c2ccccc2)(c2ccccc2)C1=O)NCCC(c1ccccc1)c1ccccc1 [Example 13, N-(3,3-diphenylpropyl)-2-(2-oxo-3,3-diphenylpyrrolidin-1-yl)acetamide] | 990 nM |

| SMILES | IC50 |
| --- | --- |
| O=C(CN1CCC(c2ccccc2)(c2ccccc2)C1=O)NC(c1ccccc1)c1ccccc1 [Example 14, N-benzhydryl-2-(2-oxo-3,3-diphenylpyrrolidin-1-yl)acetamide] | 970 nM |
| O=C(CN1CCC(c2ccccc2)(c2ccccc2)C1=O)NCC(c1ccccc1)c1ccccc1 [Example 15, N-(2,2-diphenylethyl)-2-(2-oxo-3,3-diphenylpyrrolidin-1-yl)acetamide] | 870 nM |
| CC(CNC(=O)CN1CCC(c2ccccc2)(c2ccccc2)C1=O)(c1ccccc1)c1ccccc1 [Example 16, N-(2,2-diphenylpropyl)-2-(2-oxo-3,3-diphenylpyrrolidin-1-yl)acetamide] | 900 nM |
| O=C(CN1CCC(c2ccccc2)(c2ccccc2)C1=O)N1CCNC(Cc2ccccc2)C1 (centres unmarked) [Example 18, 1-[2-(3-benzylpiperazin-1-yl)-2-oxoethyl]-3,3-diphenylpyrrolidin-2-one] | 2650 nM |
| O=C(CN1CCC(c2ccccc2)(c2ccccc2)C1=O)N1CCc2ccccc2C1 [Example 19, 1-[2-(3,4-dihydroisoquinolin-2(1H)-yl)-2-oxoethyl]-3,3-diphenylpyrrolidin-2-one] | 3310 nM |
| O=C(CN1CCC(c2ccccc2)(c2ccccc2)C1=O)N1Cc2ccc(C(F)(F)F)cc2C1 [Example 20, 1-{2-oxo-2-[5-(trifluoromethyl)-1,3-dihydro-2H-isoindol-2-yl]ethyl}-3,3-diphenylpyrrolidin-2-one] | 2820 nM |
| O=C(CN1CCC(c2ccccc2)(c2ccccc2)C1=O)N1CCC(c2ccccc2)C1 (centres unmarked) [Example 21, 1-[2-oxo-2-(3-phenylpyrrolidin-1-yl)ethyl]-3,3-diphenylpyrrolidin-2-one] | 1830 nM |
| O=C(CN1CCC(c2ccccc2)(c2ccccc2)C1=O)NC1Cc2ccccc2C1 [Example 22, N-2,3-dihydro-1H-inden-2-yl-2-(2-oxo-3,3-diphenylpyrrolidin-1-yl)acetamide] | 3960 nM |
| O=C(CN1CCC(c2ccccc2)(c2ccccc2)C1=O)N1CCOC(c2ccccc2)(c2ccccc2)C1 [Example 23, 1-[2-(2,2-diphenylmorpholin-4-yl)-2-oxoethyl]-3,3-diphenylpyrrolidin-2-one] | 690 nM |
| O=C(CN1CCC(c2ccccc2)(c2ccccc2)C1=O)N1CCCC(c2ccccc2)(c2ccccc2)C1 [Example 24, 1-[2-(3,3-diphenylpiperidin-1-yl)-2-oxoethyl]-3,3-diphenylpyrrolidin-2-one] | 810 nM |
| O=C(CN1CCC(c2ccccc2)(c2ccccc2)C1=O)N1CCC(c2ccccc2)(c2ccccc2)CC1 [Example 25, 1-[2-(4,4-diphenylpiperidin-1-yl)-2-oxoethyl]-3,3-diphenylpyrrolidin-2-one] | 460 nM |
| O=C(CN1CCC(c2ccccc2)(c2ccccc2)C1=O)N1Cc2ccc(F)cc2C1 [Example 26, 1-[2-(5-fluoro-1,3-dihydro-2H-isoindol-2-yl)-2-oxoethyl]-3,3-diphenylpyrrolidin-2-one] | 4930 nM |
| O=C(CN1CCC(c2ccccc2)(c2ccccc2)C1=O)NC1CCCc2ccccc21 (centres unmarked) [Example 27, 2-(2-oxo-3,3-diphenylpyrrolidin-1-yl)-N-1,2,3,4-tetrahydronaphthalen-1-ylacetamide] | 3030 nM |
| O=C(CN1CCC(c2ccccc2)(c2ccccc2)C1=O)N1CCN(Cc2cccc(C(F)(F)F)c2)C(=O)C1 [Example 29, 4-[(2-oxo-3,3-diphenylpyrrolidin-1-yl)acetyl]-1-[3-(trifluoromethyl)benzyl]piperazin-2-one] | 1140 nM |
| O=C(CN1CCC(c2ccccc2)(c2ccccc2)C1=O)N1CCC(C(c2ccccc2)c2ccccc2)CC1 [Example 30, 1-[2-(4-benzhydrylpiperidin-1-yl)-2-oxoethyl]-3,3-diphenylpyrrolidin-2-one] | 650 nM |
| O=C(CN1CCC(c2ccccc2)(c2ccccc2)C1=O)N1CCC(=C(c2ccccc2)c2ccccc2)CC1 [Example 31, 1-{2-[4-(diphenylmethylene)piperidin-1-yl]-2-oxoethyl}-3,3-diphenylpyrrolidin-2-one] | 1910 nM |
| O=C(CN1CCC(c2ccccc2)(c2ccccc2)C1=O)N1CCC(C(O)(c2ccc(F)cc2)c2ccc(F)cc2)CC1 [Example 32, 1-(2-{4-[bis(4-fluorophenyl)(hydroxy)methyl]piperidin-1-yl}-2-oxoethyl)-3,3-diphenylpyrrolidin-2-one] | 710 nM |
| O=C(CN1CCC(c2ccccc2)(c2ccccc2)C1=O)N1CCC(C(O)(c2cccc(C(F)(F)F)c2)c2cccc(C(F)(F)F)c2)CC1 [Example 33, 1-{2-[4-(hydroxy{bis[3-(trifluoromethyl)phenyl]}methyl)piperidin-1-yl]-2-oxoethyl}-3,3-diphenylpyrrolidin-2-one] | 7550 nM |
| O=C(CN1CCC(c2ccccc2)(c2ccccc2)C1=O)N1CCC(C(O)(c2ccccc2)c2ccccc2)CC1 [Example 34, 1-(2-{4-[hydroxy(diphenyl)methyl]piperidin-1-yl}-2-oxoethyl)-3,3-diphenylpyrrolidin-2-one] | 960 nM |
